Data on 15 compounds can be found in US20240208992A1, “MACROCYCLES AS CFTR MODULATORS” (Idorsia Pharmaceuticals Ltd, priority 2021, published 2024).

The experiment concerns the target human F508del-CFTR (Homo sapiens, UniProt P13569, DEL508-508). Kind of experiment: F508del-CFTR cell surface expression (corrector activity), DiscoveRx ß-galactosidase complementation chemiluminescence assay in recombinant U2OS cell line.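 On all read-outs here: U2OS cells co-expressing ProLink-tagged F508del-CFTR and a membrane-anchored enzyme acceptor, where more surface CFTR restores β-galactosidase activity measured by chemiluminescence.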 To be noted: for EC50: EC50, F508del-CFTR cell surface expression, U2OS cells, 16h compound incubation, geomean values; for Emax: U2OS, in relation to Emax of corrector lumacaftor (=100%), arithmetic mean values.

Molecules are shown by their SMILES.

Sequence of human F508del-CFTR (P13569 with tags, fused parts or gaps DEL508-508): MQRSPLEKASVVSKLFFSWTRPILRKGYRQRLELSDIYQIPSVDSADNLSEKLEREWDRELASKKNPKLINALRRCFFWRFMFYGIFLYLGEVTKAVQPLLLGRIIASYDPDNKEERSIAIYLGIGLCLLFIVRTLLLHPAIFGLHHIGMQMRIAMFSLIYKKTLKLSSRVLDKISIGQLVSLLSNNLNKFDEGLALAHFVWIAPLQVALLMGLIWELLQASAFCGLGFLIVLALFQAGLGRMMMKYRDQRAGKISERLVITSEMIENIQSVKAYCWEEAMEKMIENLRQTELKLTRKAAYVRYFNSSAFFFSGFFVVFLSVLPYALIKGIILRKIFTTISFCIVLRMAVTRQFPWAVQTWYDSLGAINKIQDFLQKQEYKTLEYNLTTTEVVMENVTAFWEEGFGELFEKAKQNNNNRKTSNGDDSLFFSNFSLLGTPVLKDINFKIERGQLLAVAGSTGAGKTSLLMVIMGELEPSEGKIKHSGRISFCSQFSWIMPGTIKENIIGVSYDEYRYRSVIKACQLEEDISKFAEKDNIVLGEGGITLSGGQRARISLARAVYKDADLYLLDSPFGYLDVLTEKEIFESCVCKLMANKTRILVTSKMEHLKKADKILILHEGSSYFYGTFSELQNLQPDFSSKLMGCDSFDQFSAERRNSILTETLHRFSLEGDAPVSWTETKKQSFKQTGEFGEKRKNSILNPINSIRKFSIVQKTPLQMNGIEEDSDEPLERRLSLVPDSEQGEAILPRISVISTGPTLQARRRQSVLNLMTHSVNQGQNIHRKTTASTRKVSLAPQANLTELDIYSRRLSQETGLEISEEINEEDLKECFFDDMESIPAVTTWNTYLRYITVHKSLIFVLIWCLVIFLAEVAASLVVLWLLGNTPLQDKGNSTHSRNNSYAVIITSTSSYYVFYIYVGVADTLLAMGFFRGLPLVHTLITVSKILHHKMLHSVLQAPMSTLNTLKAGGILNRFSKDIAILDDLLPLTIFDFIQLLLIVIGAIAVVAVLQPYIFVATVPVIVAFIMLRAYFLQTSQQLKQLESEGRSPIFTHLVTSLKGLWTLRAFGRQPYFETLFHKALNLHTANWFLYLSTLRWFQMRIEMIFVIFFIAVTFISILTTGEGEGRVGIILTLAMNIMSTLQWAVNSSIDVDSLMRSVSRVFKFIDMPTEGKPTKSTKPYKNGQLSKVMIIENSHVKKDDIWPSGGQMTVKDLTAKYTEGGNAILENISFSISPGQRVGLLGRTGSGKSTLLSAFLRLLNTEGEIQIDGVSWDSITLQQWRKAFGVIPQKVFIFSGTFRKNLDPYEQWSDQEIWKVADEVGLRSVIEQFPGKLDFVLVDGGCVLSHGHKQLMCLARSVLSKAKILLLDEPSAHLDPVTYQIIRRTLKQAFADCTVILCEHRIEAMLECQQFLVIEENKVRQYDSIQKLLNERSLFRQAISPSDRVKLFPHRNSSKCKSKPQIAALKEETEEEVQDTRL

Take `COc1cc(CCNC(=O)[C@@H]2CC(=O)N(C)[C@@H](CC(C)C)C(=O)N3CCC4(CC4)C[C@H]3C(=O)N[C@H](Cc3ccccc3)COc3cc(C)nc(OC)c3C(=O)N2)on1` [Example 684, (7′S,11′S,17a′S,20′R)-20′-benzyl-11′-isobutyl-4′-methoxy-N-(2-(3-methoxyisoxazol-5-yl)ethyl)-2′,10′-dimethyl-5′,9′,12′,18′-tetraoxo-5′,6′,7′,8′,9′,10′,11′,12′,14′,15′,17′,17a′,18′,19′,20′,21′-hexadecahydrospiro[cyclopropane-1,16′-dipyrido[2,1-f:3′,4′-p][1]oxa[4,7,10,14]tetraazacycloheptadecine]-7′-carboxamide]: the EC50 was 986 nM and the Emax stood at 235%.

On to `[2H]C([2H])([2H])Oc1nc(C)cc2c1C(=O)N[C@H](C(=O)NCCc1cnn(C3CC3)n1)CC(=O)N(C)[C@@H](CC(C)C)C(=O)N1CCCC[C@@H]1C(=O)N[C@H](Cc1ccccc1)CO2` [Example 685, (7S,11S,17aR,20R)-20-benzyl-N-(2-(2-cyclopropyl-2H-1,2,3-triazol-4-yl)ethyl)-11-isobutyl-4-(methoxy-d3)-], for which the 50% effective concentration (EC50) was found to be 500 nM and the Emax amounted to 234%.

On to `COc1cc(CCNC(=O)[C@@H]2CC(=O)N(C)[C@@H](CC(C)C)C(=O)N(C)C3(CC3)C(=O)N[C@H](Cc3ccccc3)COc3cnc4ccccc4c3C(=O)N2)on1` [Example 686, (3′S,7′S,13′R)-13′-benzyl-7′-isobutyl-N-(2-(3-methoxyisoxazol-5-yl)ethyl)-6′,9′-dimethyl-1′,5′,8′,11′-tetraoxo-2′,3′,4′,5′,6′,7′,8′,9′,11′,12′,13′,14′-dodecahydro-1′H-spiro[cyclopropane-1,10′-[1]oxa[4,7,10,14]tetraazacycloheptadecino[17,16-c]quinoline]-3′-carboxamide], for which the EC50 was determined as 436 nM and the Emax amounted to 332%.

With `CC(C)C[C@H]1C(=O)N(C)CC(=O)N[C@H](Cc2ccccc2)COc2ccccc2C(=O)N[C@H](C(=O)NCCc2ccc3c(c2)OCO3)CC(=O)N1C` [Example 687, (3R,9S,13S)-N-(2-(benzo[d][1,3]dioxol-5-yl)ethyl)-3-benzyl-9-isobutyl-7,10-dimethyl-5,8,11,15-tetraoxo-2,3,4,5,6,7,8,9,10,11,12,13,14,15-tetradecahydrobenzo[p][1]oxa[4,7,10,14]tetraazacycloheptadecine-13-carboxamide], the concentration for a half-maximal effect (EC50) was determined as 794 nM and the Emax is 107%.

Turning to `CC(C)C[C@H]1C(=O)N(C)CC(=O)N[C@H](Cc2ccccc2)COc2ccccc2C(=O)N[C@H](C(=O)NCCc2ccc3c(c2)OCCO3)CC(=O)N1C` [Example 688, (3R,9S,13S)-3-benzyl-N-(2-(2,3-dihydrobenzo[b][1,4]dioxin-6-yl)ethyl)-9-isobutyl-7,10-dimethyl-5,8,11,15-tetraoxo-2,3,4,5,6,7,8,9,10,11,12,13,14,15-tetradecahydrobenzo[p][1]oxa[4,7,10,14]tetraazacycloheptadecine-13-carboxamide], the EC50 is 458 nM and the Emax worked out at 104%.

As to `CC(C)C[C@H]1C(=O)N(C)C2(CCC2)C(=O)N[C@H](Cc2ccccc2)COc2cnc3ccc(F)cc3c2C(=O)N[C@H](C(=O)NCCc2cc(C3CC3)no2)CC(=O)N1C` [Example 689, (3'S,7'S,13′R)-13′-Benzyl-N-(2-(3-cyclopropylisoxazol-5-yl)ethyl)-20′-fluoro-7′-isobutyl-6′,9′-dimethyl-1′,5′,8′,11′-tetraoxo-2′,3′,4′,5′,6′,7′,8′,9′,11′,12′,13′,14′-dodecahydro-1′H-spiro[cyclobutane-1,10′-[1]oxa[4,7,10,14]tetraazacycloheptadecino[17,16-c]quinoline]-3′-carboxamide], the 50% effective concentration (EC50) came out at 245 nM and the Emax was determined as 390%.

Turning to `Cc1cc(CCNC(=O)[C@@H]2CC(=O)N(C)[C@@H](CC(C)C)C(=O)N(C)C3(CCC3)C(=O)N[C@H](Cc3ccccc3)COc3cnc4ccc(F)cc4c3C(=O)N2)on1` [Example 690, (3′S,7′S,13′R)-13′-benzyl-20′-fluoro-7′-isobutyl-6′,9′-dimethyl-N-(2-(3-methylisoxazol-5-yl)ethyl)-1′,5′,8′,11′-tetraoxo-2′,3′,4′,5′,6′,7′,8′,9′,11′,12′,13′,14′-dodecahydro-1′H-spiro[cyclobutane-1,10′-[1]oxa[4,7,10,14]tetraazacycloheptadecino[17,16-c]quinoline]-3′-carboxamide], the EC50 turned out to be 478 nM and the Emax was 401%.

For the compound `CC(C)C[C@H]1C(=O)N(C)C2(CCC2)C(=O)N[C@H](Cc2ccccc2)COc2cnc3ccc(F)cc3c2C(=O)N[C@H](C(=O)NCCc2noc(C3CC3)n2)CC(=O)N1C` [Example 691, (3′S,7′S,13′R)-13′-benzyl-N-(2-(5-cyclopropyl-1,2,4-oxadiazol-3-yl)ethyl)-20′-fluoro-7′-isobutyl-6′,9′-dimethyl-1′,5′,8′,11′-tetraoxo-2′,3′,4′,5′,6′,7′,8′,9′,11′,12′,13′,14′-dodecahydro-1′H-spiro[cyclobutane-1,10′-[1]oxa[4,7,10,14]tetraazacycloheptadecino[17,16-c]quinoline]-3′-carboxamide], the EC50 came out at 201 nM and the Emax was 364%.

In the case of `CC(C)C[C@H]1C(=O)N(C)C2(CCC2)C(=O)N[C@H](Cc2ccccc2)COc2cnc3ccc(F)cc3c2C(=O)N[C@H](C(=O)NCCc2nc(C3CC3)no2)CC(=O)N1C` [Example 692, (3′S,7′S,13′R)-13′-benzyl-N-(2-(3-cyclopropyl-1,2,4-oxadiazol-5-yl)ethyl)-20′-fluoro-7′-isobutyl-6′,9′-dimethyl-1′,5′,8′,11′-tetraoxo-2′,3′,4′,5′,6′,7′,8′,9′,11′,12′,13′,14′-dodecahydro-1′H-spiro[cyclobutane-1,10′-[1]oxa[4,7,10,14]tetraazacycloheptadecino[17,16-c]quinoline]-3′-carboxamide], the EC50 stood at 104 nM and the Emax stood at 301%.

Turning to `CC(C)C[C@H]1C(=O)N(C)[C@H](CC2CCCC2)C(=O)N[C@H](Cc2ccccc2)COc2cnc3ccc(F)cc3c2C(=O)N[C@H](C(=O)NCCc2noc(C3CC3)n2)CC(=O)N1C` [Example 693, (3S,7S,10R,13R)-13-benzyl-10-(cyclopentylmethyl)-N-(2-(5-cyclopropyl-1,2,4-oxadiazol-3-yl)ethyl)-20-fluoro-7-isobutyl-6,9-dimethyl-1,5,8,11-tetraoxo-1,2,3,4,5,6,7,8,9,10,11,12,13,14-tetradecahydro-[1]oxa[4,7,10,14]tetraazacycloheptadecino[17,16-c]quinoline-3-carboxamide], the EC50 was 40 nM and the Emax came out at 401%.

With `CC(C)C[C@H]1C(=O)N(C)[C@@H](CC2CCCC2)C(=O)N[C@H](Cc2ccccc2)COc2cnc3ccc(F)cc3c2C(=O)N[C@H](C(=O)NCCc2noc(C3CC3)n2)CC(=O)N1C` [Example 694, (3S,7S,10S,13R)-13-benzyl-10-(cyclopentylmethyl)-N-(2-(5-cyclopropyl-1,2,4-oxadiazol-3-yl)ethyl)-20-fluoro-7-isobutyl-6,9-dimethyl-1,5,8,11-tetraoxo-1,2,3,4,5,6,7,8,9,10,11,12,13,14-tetradecahydro-[1]oxa[4,7,10,14]tetraazacycloheptadecino[17,16-c]quinoline-3-carboxamide], the half-maximal effective concentration (EC50) worked out at 241 nM and the Emax was found to be 213%.

Take `Cc1cc(CCNC(=O)[C@@H]2CC(=O)N(C)[C@@H](CC(C)C)C(=O)N(C)[C@@H](Cc3cccc4ccccc34)C(=O)N[C@H](Cc3ccccc3)COc3cnc4ccccc4c3C(=O)N2)on1` [Example 695, (3S,7S,10S,13R)-13-benzyl-7-isobutyl-6,9-dimethyl-N-(2-(3-methylisoxazol-5-yl)ethyl)-10-(naphthalen-1-ylmethyl)-1,5,8,11-tetraoxo-1,2,3,4,5,6,7,8,9,10,11,12,13,14-tetradecahydro-[1]oxa[4,7,10,14]tetraazacycloheptadecino[17,16-c]quinoline-3-carboxamide]: the EC50 turned out to be 201 nM and the Emax is 237%.

As for `CC(C)C[C@H]1C(=O)N(C)[C@H](CC2CCCCC2)C(=O)N[C@H](Cc2ccccc2)COc2cnc3ccc(F)cc3c2C(=O)N[C@H](C(=O)NCCc2nc(C3CC3)no2)CC(=O)N1C` [Example 696, (3S,7S,10R,13R)-13-benzyl-10-(cyclohexylmethyl)-N-(2-(3-cyclopropyl-1,2,4-oxadiazol-5-yl)ethyl)-20-fluoro-7-isobutyl-6,9-dimethyl-1,5,8,11-tetraoxo-1,2,3,4,5,6,7,8,9,10,11,12,13,14-tetradecahydro-[1]oxa[4,7,10,14]tetraazacycloheptadecino[17,16-c]quinoline-3-carboxamide], the EC50 is 14 nM and the Emax was 252%.

Take `CC(C)C[C@H]1C(=O)N(C)[C@H](CC2CCCCC2)C(=O)N[C@H](Cc2ccccc2)COc2cnc3ccc(F)cc3c2C(=O)N[C@H](C(=O)NCCc2cc(C3CC3)no2)CC(=O)N1C` [Example 697, (3S,7S,10R,13R)-13-benzyl-10-(cyclohexylmethyl)-N-(2-(3-cyclopropylisoxazol-5-yl)ethyl)-20-fluoro-7-isobutyl-6,9-dimethyl-1,5,8,11-tetraoxo-1,2,3,4,5,6,7,8,9,10,11,12,13,14-tetradecahydro-[1]oxa[4,7,10,14]tetraazacycloheptadecino[17,16-c]quinoline-3-carboxamide]: the EC50 is 27 nM and the Emax stood at 306%.

For `Cc1cc(CCNC(=O)[C@@H]2CC(=O)N(C)[C@@H](CC(C)C)C(=O)N(C)[C@H](Cc3cccc4ccccc34)C(=O)N[C@H](Cc3ccccc3)COc3cnc4ccccc4c3C(=O)N2)on1` [Example 698, (3S,7S,10R,13R)-13-benzyl-7-isobutyl-6,9-dimethyl-N-(2-(3-methylisoxazol-5-yl)ethyl)-10-(naphthalen-1-ylmethyl)-1,5,8,11-tetraoxo-1,2,3,4,5,6,7,8,9,10,11,12,13,14-tetradecahydro-[1]oxa[4,7,10,14]tetraazacycloheptadecino[17,16-c]quinoline-3-carboxamide], the EC50 was found to be 199 nM and the Emax is 313%.

What is called EC50 is the concentration needed to bring the measured effect to its halfway point. As a reminder, the Emax is the size of the effect at its maximum, as opposed to the concentration needed.
